Reference: PubChem BioAssay AID248 (DTP/NCI, 2004)
Several values for one entry are separate records, joined by “and”; a condition that tells them apart may be missing. Equal values may be shown once. Inconclusive results and toxic doses are left out. No stated cut-off is given here; in the data, active means T/C of 150% or more; inactive means T/C below 125%.

Test system: L1210 leukemia ip in BDF1 mice, survival T/C
Test: NCI In Vivo Anticancer Drug Screen. Data for tumor model L1210 Leukemia (intraperitoneal) in B6D2F1 (BDF1) mice
Details: endpoint: mean survival time, higher = longer survival
Outline: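 Antitumor effect is assessed in tumor-bearing animals. Survival in the compound arm is compared with a vehicle-dosed control arm and expressed as their quotient.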

[1] = dose: 200.0 mg/kg/injection, schedule: Q01DX001 (ip), vehicle: saline
[2] = dose: 400.0 mg/kg/injection, schedule: Q01DX001 (ip), vehicle: saline
[3] = dose: 100.0 mg/kg/injection, schedule: Q04DX002 (ip), vehicle: Klucel (hydroxypropylcellulose) (HPC)
[4] = dose: 200.0 mg/kg/injection, schedule: Q04DX002 (ip), vehicle: Klucel (hydroxypropylcellulose) (HPC)
[5] = dose: 400.0 mg/kg/injection, schedule: Q04DX002 (ip), vehicle: Klucel (hydroxypropylcellulose) (HPC)
[6] = dose: 100.0 mg/kg/injection, schedule: Q04DX003 (ip), vehicle: saline with Tween-80
[7] = dose: 200.0 mg/kg/injection, schedule: Q04DX003 (ip), vehicle: saline with Tween-80
[8] = dose: 400.0 mg/kg/injection, schedule: Q04DX003 (ip), vehicle: saline with Tween-80
[9] = dose: 100.0 mg/kg/injection, schedule: Q01DX009 (ip), vehicle: Klucel (hydroxypropylcellulose) (HPC)
[10] = dose: 200.0 mg/kg/injection, schedule: Q01DX009 (ip), vehicle: Klucel (hydroxypropylcellulose) (HPC)
[11] = dose: 400.0 mg/kg/injection, schedule: Q01DX009 (ip), vehicle: Klucel (hydroxypropylcellulose) (HPC)
[12] = dose: 100.0 mg/kg/injection, schedule: Q04DX003 (ip), vehicle: saline
[13] = dose: 200.0 mg/kg/injection, schedule: Q04DX003 (ip), vehicle: saline
[14] = dose: 400.0 mg/kg/injection, schedule: Q04DX003 (ip), vehicle: saline
[15] = dose: 100.0 mg/kg/injection, schedule: Q01DX009 (ip), vehicle: saline with Tween-80
[16] = dose: 200.0 mg/kg/injection, schedule: Q01DX009 (ip), vehicle: saline with Tween-80
[17] = dose: 400.0 mg/kg/injection, schedule: Q01DX009 (ip), vehicle: saline with Tween-80
[18] = dose: 50.0 mg/kg/injection, schedule: Q01DX001 (ip), vehicle: saline

Measured: T/C

Nc1nc2nc(-c3ccccc3)nc(N)c2nc1-c1ccc(N(CCO)CCO)cc1
inactive: dose: 45.0 mg/kg/injection, schedule: Q01DX001 (ip), vehicle: saline 102 % of control | dose: 67.0 mg/kg/injection, schedule: Q01DX001 (ip), vehicle: saline 108 % of control | dose: 150.0 mg/kg/injection, schedule: Q01DX001 (ip), vehicle: saline 91 % of control | [1] 95 % of control | [2] 95 % of control

NC(CSS(=O)(=O)O)=NCCN1CCNC1=O
inactive: [3] 100 % of control | [4] 100 % of control | [5] 97 % of control

O=C(Nc1ccccc1NC(=O)C(Cl)(Cl)Cl)C(Cl)(Cl)Cl
inactive: dose: 87.5 mg/kg/injection, schedule: Q01DX009 (ip), vehicle: carboxymethylcellulose (CMC) 88 % of control | dose: 175.0 mg/kg/injection, schedule: Q01DX009 (ip), vehicle: carboxymethylcellulose (CMC) 93 % of control | dose: 350.0 mg/kg/injection, schedule: Q01DX009 (ip), vehicle: carboxymethylcellulose (CMC) 96 % of control

CCCC(O)C1CCCCC1O (centres undefined)
inactive: [6] 113 % of control | [7] 100 % of control | [8] 103 % of control

Cc1ccc(C)c(C(=O)CCCCl)c1
inactive: [6] 98 % of control

C=C1C(=O)O[C@@H]2/C=C(/C)[C@@]3(O)C=C[C@](C)(C[C@@H](OC(=O)/C(=C\C)COC(C)=O)[C@@H]12)O3
inactive: dose: 0.06 mg/kg/injection, schedule: Q01DX009 (ip), vehicle: carboxymethylcellulose (CMC) 102 % of control | dose: 0.12 mg/kg/injection, schedule: Q01DX009 (ip), vehicle: carboxymethylcellulose (CMC) 101 % of control | dose: 0.25 mg/kg/injection, schedule: Q01DX009 (ip), vehicle: carboxymethylcellulose (CMC) 98 % of control

c1ccc([P+](c2ccccc2)(c2ccccc2)c2ccc(-c3ccc([P+](c4ccccc4)(c4ccccc4)c4ccccc4)cc3)cc2)cc1
inactive: dose: 1.25 mg/kg/injection, schedule: Q01DX009 (ip), vehicle: Klucel (hydroxypropylcellulose) (HPC) 102 % of control | dose: 3.5 mg/kg/injection, schedule: Q01DX009 (ip), vehicle: Klucel (hydroxypropylcellulose) (HPC) 105 % of control

CCC1(CCC(C)C)C(=O)NC(=S)N(C)C1=O (centres undefined)
inactive: dose: 75.0 mg/kg/injection, schedule: Q01DX001 (ip), vehicle: carboxymethylcellulose (CMC) 89 % of control | dose: 75.0 mg/kg/injection, schedule: Q01DX001 (ip), vehicle: other 97 % of control | dose: 150.0 mg/kg/injection, schedule: Q01DX001 (ip), vehicle: carboxymethylcellulose (CMC) 89 % of control | dose: 150.0 mg/kg/injection, schedule: Q01DX001 (ip), vehicle: other 103 % of control | dose: 300.0 mg/kg/injection, schedule: Q01DX001 (ip), vehicle: carboxymethylcellulose (CMC) 91 % of control | dose: 300.0 mg/kg/injection, schedule: Q01DX001 (ip), vehicle: other 121 % of control

COc1cccc2c1C(=O)OC2=O
inactive: dose: 75.0 mg/kg/injection, schedule: Q01DX009 (ip), vehicle: Klucel (hydroxypropylcellulose) (HPC) 88 % of control | dose: 150.0 mg/kg/injection, schedule: Q01DX009 (ip), vehicle: Klucel (hydroxypropylcellulose) (HPC) 90 % of control | dose: 300.0 mg/kg/injection, schedule: Q01DX009 (ip), vehicle: Klucel (hydroxypropylcellulose) (HPC) 88 % of control

C[Si](C)(C)c1cc(F)c(F)c(F)c1F
inactive: [9] 100 % of control | dose: 100.0 mg/kg/injection, schedule: Q04DX003 (ip), vehicle: Klucel (hydroxypropylcellulose) (HPC) 97 % of control | [10] 102 % of control | dose: 200.0 mg/kg/injection, schedule: Q04DX003 (ip), vehicle: Klucel (hydroxypropylcellulose) (HPC) 102 % of control | [11] 98 % of control | dose: 400.0 mg/kg/injection, schedule: Q04DX003 (ip), vehicle: Klucel (hydroxypropylcellulose) (HPC) 103 % of control

COc1ccc(N=NN(C(C)=O)c2ccccc2)cc1
inactive: [9] 111 % of control | [12] 102 % of control | [10] 110 % of control | [13] 111 % of control | [11] 96 % of control | [14] 123 % of control

C/C(=C1/c2ccccc2-c2n[nH]c(C)c21)S(=O)(=O)O
inactive: [15] 95 % of control | [6] 94 % of control | [16] 88 % of control | [7] 105 % of control | [17] 95 % of control | [8] 91 % of control

CCOC(=O)C1C(=O)CC(=O)C(C(=O)OCC)C1C1CC=CCC1 (centres undefined)
inactive: dose: 100.0 mg/kg/injection, schedule: Q04DX002 (ip), vehicle: saline with Tween-80 91 % of control | dose: 200.0 mg/kg/injection, schedule: Q04DX002 (ip), vehicle: saline with Tween-80 94 % of control | dose: 400.0 mg/kg/injection, schedule: Q04DX002 (ip), vehicle: saline with Tween-80 94 % of control

O=C(NC1CSSC1)C(Cc1ccccc1)N1C(=O)c2ccccc2C1=O (centres undefined)
inactive: dose: 6.25 mg/kg/injection, schedule: Q01DX009 (ip), vehicle: water 94 % of control | dose: 12.5 mg/kg/injection, schedule: Q01DX009 (ip), vehicle: water 96 % of control | dose: 25.0 mg/kg/injection, schedule: Q01DX009 (ip), vehicle: water 107 % of control | dose: 50.0 mg/kg/injection, schedule: Q01DX009 (ip), vehicle: water 96 % of control and 88 % of control | dose: 100.0 mg/kg/injection, schedule: Q01DX009 (ip), vehicle: water 87 % of control and 91 % of control | dose: 200.0 mg/kg/injection, schedule: Q01DX009 (ip), vehicle: water 98 % of control | dose: 400.0 mg/kg/injection, schedule: Q01DX009 (ip), vehicle: water 96 % of control

c1cc(OC2CCCCO2)ccc1OC1CCCCO1 (centres undefined)
inactive: [15] 98 % of control | [6] 95 % of control | [16] 97 % of control | [7] 93 % of control | [17] 97 % of control | [8] 95 % of control

COC1=NS(=O)(=O)C2(O1)c1ccccc1-c1ccccc12
inactive: [3] 96 % of control | [4] 96 % of control | [5] 116 % of control

CC(C)CC1NC(C)(C)N(CC(=O)O)C1=O (centres undefined)
inactive: [18] 88 % of control | [1] 99 % of control

CNC(=O)Nc1cccc(C(=O)O)c1
inactive: [9] 98 % of control | [10] 103 % of control | [11] 92 % of control

COC1CCC2(C)C(C)C(C)CC3OC32C1 (centres undefined)
inactive: [18] 95 % of control | dose: 100.0 mg/kg/injection, schedule: Q01DX001 (ip), vehicle: saline 101 % of control | [1] 95 % of control | [2] 104 % of control

Clc1ccc(C(=Cc2ccccc2Br)c2ccc(Cl)cc2)cc1
inactive: [15] 100 % of control | [6] 98 % of control | [16] 100 % of control | [7] 98 % of control | [17] 96 % of control | [8] 101 % of control

C[N+](C)(C)c1ccc(/C=C2/CCCCC2=O)cc1
inactive: dose: 12.5 mg/kg/injection, schedule: Q01DX009 (ip), vehicle: saline 117 % of control | dose: 12.5 mg/kg/injection, schedule: Q04DX003 (ip), vehicle: saline 97 % of control | dose: 25.0 mg/kg/injection, schedule: Q01DX009 (ip), vehicle: saline 100 % of control | dose: 25.0 mg/kg/injection, schedule: Q04DX003 (ip), vehicle: saline 92 % of control | dose: 50.0 mg/kg/injection, schedule: Q01DX009 (ip), vehicle: saline 103 % of control | dose: 50.0 mg/kg/injection, schedule: Q04DX003 (ip), vehicle: saline 106 % of control

CN(C)c1c(-c2ccc(Cl)cc2)cc(-c2ccccc2)[nH]c1=O
inactive: dose: 100.0 mg/kg/injection, schedule: Q01DX001 (ip), vehicle: carboxymethylcellulose (CMC) 97 % of control | dose: 100.0 mg/kg/injection, schedule: Q01DX009 (ip), vehicle: acetone 95 % of control | [12] 89 % of control | dose: 200.0 mg/kg/injection, schedule: Q01DX001 (ip), vehicle: carboxymethylcellulose (CMC) 91 % of control | dose: 200.0 mg/kg/injection, schedule: Q01DX009 (ip), vehicle: acetone 98 % of control | [13] 89 % of control | dose: 400.0 mg/kg/injection, schedule: Q01DX001 (ip), vehicle: carboxymethylcellulose (CMC) 91 % of control | dose: 400.0 mg/kg/injection, schedule: Q01DX009 (ip), vehicle: acetone 93 % of control | [14] 87 % of control

COC(=O)C1C(O)CN2CCCC12 (centres undefined)
inactive: [12] 93 % of control | [13] 93 % of control | [14] 93 % of control
